Test results taken from US6149948A, “Method of decreasing plasma cholesterol and triglycerides with a chromium-containing complex” (University of Alabama, priority 1999, dated 2000).

How the values were obtained:
male Sprague Dawley rats [1] = test: Plasma variables after 4, 8 and 12 weeks of supplementation; assay type: in vivo, rat
Procedure: Solid food intake and body mass were monitored daily.
Blood was collected from the tail after four, eight, and twelve weeks of Cr or H2 O administration. Prior to blood collection, animals were fasted 12 to 15 hours.
Immediately after blood removal, 0.5 mg/mL heparin and 10 mg/mL NaF were added to the blood. Blood was next immediately centrifuged; the blood plasma was tested for glucose, total cholesterol, triglycerides, low density lipoprotein (LDL) cholesterol (week 12 only), and high density lipoprotein (HDL) cholesterol (week 12 only) using Diagnostic Kits from Sigma Chemical Co. (St. Louis, Mo.) and insulin using double antibody or antibody coated kits from ICN Biomedicals (Costa Mesa, Calif.).
Statistical analyses were performed by analysis of variance. All values are presented as mean±SEM. P values are calculated using standard deviations.

pUC19 plasmid DNA [2] = settings: cited from earlier work
male Sprague Dawley rats [3] = test: 12-week chromium supplementation of rats: body and tissue masses, toxic effects
Procedure: (§1) Four week old male Sprague Dawley rats were allowed to fed ad libitum on a commercial rat food and tap water. Rats were raised in standard plastic and stainless steel cages on a 12 hour light-dark cycle. Solid food intake and body mass were monitored daily. Twenty four rats were divided randomly into three groups of eight. […] The last group was injected with 200 μL of doubly deionized water daily and served as the control. After 12 weeks, the animals were sacrificed by carbon dioxide asphyxiation. Liver, kidney, heart, pancreas, testes, and epididymal fat were quickly harvested and weighed. Liver and kidney were placed into plastic screw-top containers and stored at -80° C. for further analysis.

DH5α E. coli cells = settings: DNA incubated 3 hrs with complex and peroxide; ampicillin plates
Procedure: A reaction mixture containing 10 μg of pUC19, 1.5 mM 1, and 0.900 mM H2 O in 10 mM Tris, pH 8.0 was allowed to react for 3 hours at 25° C. Quench buffer was added, and the sample was immediately loaded onto a 1% agarose gel containing 0.5 μg ml^-1 of ethidium bromide. After electrophoresis in 1×TBE buffer, the band at 3.5 kB was excised from the gel, and the DNA was removed from the gel using a Qiagen gel purification kit. The eluted DNA was gel-quantitated and used without further modification for transformation.
Electrocompetent DH5α E. coli cells were electroporated using 1 μL of 0.1 μg mL^-1 of either trimer-nicked DNA or supercoiled pUC19 plasmid DNA in 50 μL of cells. The E. coli cells were rescued by adding 1 mL of SOC media (20 gL^-1 Bactotryptone, 5 gL^-1 yeast extract, 9 mM NaCl, 20 mM glucose, pH 7.5), followed by incubation at 37° C. for 1 hour. Each cell suspension was diluted 1:100 with SOC media, and 50 μL of each diluted suspension was spread on separate LB-ANM agar plates containing 80 μg mL^-1 X-gal, 100 μM IPTG, and 100 μg mL^-1 ampicillin. The X-gal and IPTG were added to facilitate detection of colonies. The plates were placed in a 37° C. incubator overnight.

pUC19 plasmid DNA [4] = tested on: pUC19 plasmid DNA
Procedure: The reactions contain pUC19 (39 μM in base pairs) and 50 μM phosphate buffer, pH 7.0, and: Lane 2, 5 MM ascorbate; Lanes 3-7, 5 mM ascorbate and 120, 40, 4.0, 0.40, and 0.040 μM 1, respectively; Lane 8, 5 mM ascorbate and 1.2 μM Cr(pic)3 ; Lane 9, 5 mM ascorbate and 120 pM 1 under argon; Lane 10, 5 mM ascorbate, 120 μM 1, and 1 M EtOH; Lane 11, 5 mM ascorbate, 120 μM 1, and 1 M t-BuOH; Lane 12, 5 mM ascorbate, 120 μM 1, and 100 μg/mL SOD; and Lane 13, 5 mM ascorbate, 120 μl , and 100 μ/mL catalase. Reactions were allowed to proceed 60 minutes before quenching.
A typical reaction was carried out mixing aliquots of pUC19 (in 5 μM Tris, 500 EDTA buffer (pH 8.0)), reductant in H2 O, LMWCr in 50 mM NH4 OAc (pH 6.5) or 1 in H2 O, phosphate buffer (pH 7.0), and H2 O to give a final volume of 15 μL; the final phosphate concentration was 50 mM. Inhibitors were added as solutions in H2 O, solutions in phosphate buffer, or as neat liquids. Reactions were allowed to proceed 180 minutes unless otherwise noted. All reactions were quenched by addition of loading buffer (24% glycerol and 0.1% bromophenol blue). Seven microliter aliquots were loaded directly onto a 1% agarose gel and electrophoresed at 60 V. The gel was stained with ethidium bromide and was photographed on a UV transilluminator. […]

[5] = tested on: insulin-activated insulin receptor; settings: cited from earlier work
male Sprague Dawley rats [6] = settings: rat, in vivo
Procedure: as §1

[7] = tested on: cultured Chinese hamster ovary cells; settings: cited from earlier work
rats = settings: up to 1500 μg/kg diet for up to 24 weeks; cited from earlier work
[8] = plasma, Week 4, fasted rats, 20 μg Cr/kg daily i.v., mean ± SEM
[9] = plasma, Week 8, fasted rats, 20 μg Cr/kg daily i.v., mean ± SEM
[10] = plasma, Week 12, fasted rats, 20 μg Cr/kg daily i.v., mean ± SEM

## CCC(=O)[O-].CCC(=O)[O-].CCC(=O)[O-].CCC(=O)[O-].CCC(=O)[O-].CCC(=O)[O-].O.O.O.[Cr+3].[Cr+3].[Cr+3].[O-2] [Compound 1, [Cr3 O(O2 CCH2 CH3)6 (H2 O)3]^+]
Male Sprague Dawley rats [1]; [8]
  Glucose: 168 ± 33 mg/dL
  Insulin: 99.0 ± 3.2 μIU/mL
  Total cholesterol: 65.2 ± 3.4 mg/dL
  Triglycerides: 83.3 ± 2.7 mg/dL
Male Sprague Dawley rats [1]; [9]
  Glucose: 75.5 ± 2.9 mg/dL
  Insulin: 43.3 ± 2.1 μIU/mL
  Total cholesterol: 63.8 ± 3.3 mg/dL
Male Sprague Dawley rats [1]; [10]
  Glucose: 68.2 ± 2.8 mg/dL
  HDL cholesterol: 10.7 ± 0.65 mg/dL
  Insulin: 43.0 ± 1.9 μIU/mL
  LDL cholesterol: 25.6 ± 2.4 mg/dL
  Total cholesterol: 46.9 ± 2.8 mg/dL
  Triglycerides: 53.2 ± 3.7 mg/dL
Male Sprague Dawley rats [1]; week 12
  LDL cholesterol concentration less than that of the control: ~40%
  total cholesterol concentration less than that of the control: 33%
pUC19 plasmid DNA [2]
  DNA cleavage (literature): not to lead to DNA cleavage
Male Sprague Dawley rats [3]; 12 weeks, 20 μg Cr/kg daily i.v.
  toxic effects of supplementation: no toxic effects were observed
Male Sprague Dawley rats [3]; after 12 weeks, daily tail vein injection, 20 μg Cr per kg body mass, mean ± SEM, eight rats
  Tissue mass, Epididymal fat: 4.44 + 0.45 grams
DH5α E. coli cells
  colonies of E. coli transformed with complex-nicked pUC19 versus supercoiled pUC19: the same number of colonies
pUC19 plasmid DNA [4]
  DNA cleavage in the presence of dithiothreitol: does not increase the amount of cleavage
[5]
  stimulation of insulin receptor tyrosine kinase activity: mimic the ability of LMWCr to stimulate insulin receptor kinase activity
Male Sprague Dawley rats [6]
  iron concentration of liver: 6.0×10^2 μg/g dry mass

## CC(=O)[O-].CC(=O)[O-].CC(=O)[O-].CC(=O)[O-].CC(=O)[O-].CC(=O)[O-].O.O.O.[Cr+3].[Cr+3].[Cr+3].[O-2] [acetate analogue of 1, [Cr3 O(OAc)6 (H2 O)3]^+, reference compound]
pUC19 plasmid DNA [2]; Cr(pic)3: 120 nM chromium, 5 mM ascorbic acid or thiols, acetate analogue: ascorbate
  DNA cleavage in the presence of biological reductants (literature): unable to catalyze DNA cleavage in the presence of ascorbate

## chromium(III) tris(picolinate) [Cr(pic)3]
[7]
  DNA strand breaks: lead to DNA strand breaks
rats
  acute toxic effects: no acute toxic effects
